{"source": "patent US20150148235A1", "about": "“HERBICIDE-RESISTANT SUNFLOWER PLANTS WITH MULTIPLE HERBICIDE RESISTANT ALLELES OF AHASL1 AND METHODS OF USE” (NIDERA S.A., priority 2013, published 2015)", "test_system": "sunflower lines and hybrids carrying A122T and/or A205V AHASL1 alleles", "experiment": "Greenhouse whole-plant response to imazapyr doses (height, Phytotoxicity Index, dry biomass), Example 2", "assay_type": "in vivo, Helianthus annuus", "conditions": "14 DAT; for Biomass weight reduction: heterozygous A122T/A205V", "protocol": "Seeds were sown in Petri dishes and, after germination, plantlets were transplanted to pots of 10 cm of diameter in a potting media consisting of equal parts of vermiculite, soil and sand. Plants were grown in a greenhouse under natural light conditions supplemented with 400 W sodium halide lamps to provide a 16 hr daylength. Day/night temperatures were 25 and 20° C., respectively. At the V2-V4 stage (Schneiter & Miller (1981) Crop Sci. 21:901-903) 10 plants of each genotype were randomly assigned to each treatment consisting of eight imazapyr doses (0, 40, 80, 160, 240, 320, 400 and 480 g ai/ha, corresponding to untreated, 0.5×, 1×, 2×, 3×, 4×, 5× and 6×, respectively), and a zero-time biomass determination. Experiment was arranged as a randomized block design with a full factorial (sunflower line×treatment) arrangement of treatments and 10 replications.\nOn the day of herbicide application ten plants of each genotype were cut at the cotyledonal node and dried at 60° C. for 48 hrs for zero-time dried weight determination.\nThe remaining plants were maintained for 14 days after imazapyr treatment (DAT) and their height, Phytotoxicity Index (PI) and above ground dry biomass were determined Height was determined as the distance between the cotyledonal node and the apex of each plant. Above ground biomass data from each line were converted to biomass accumulation after application by subtracting the appropriate average zero-time biomass from each sample. Dry biomass data were converted to percentages of the untreated control plants within each line to allow direct comparisons between groups.", "key": {"[1]": {"conditions": "H4 (A122T/A205V hybrid), 4x=320 g ai/ha"}, "[2]": {"conditions": "L1 (A205V line), 0.5x=40 g ai/ha"}, "[3]": {"conditions": "L1 (A205V line), 3x=240 g ai/ha"}, "[4]": {"conditions": "L2 (A205V line), 5x=400 g ai/ha"}, "[5]": {"conditions": "L3 (cmsGM40, A122T line), 2x=160 g ai/ha"}, "[6]": {"conditions": "L3 (cmsGM40, A122T line), 4x=320 g ai/ha"}, "[7]": {"conditions": "L4 (A122T line), 0.5x=40 g ai/ha"}, "[8]": {"conditions": "L4 (A122T line), 2x=160 g ai/ha"}, "[9]": {"conditions": "L4 (A122T line), 3x=240 g ai/ha"}, "[10]": {"conditions": "L5 (WT susceptible), 1x=80 g ai/ha"}, "[11]": {"conditions": "L5 (WT susceptible), 2x=160 g ai/ha"}, "[12]": {"conditions": "L5 (WT susceptible), 3x=240 g ai/ha"}, "[13]": {"conditions": "L5 (WT susceptible), 4x=320 g ai/ha"}, "[14]": {"conditions": "L5 (WT susceptible), 5x=400 g ai/ha"}, "[15]": {"conditions": "L5 (WT susceptible), 6x=480 g ai/ha"}, "[16]": {"conditions": "mean of A122T genotypes (H2,L3,L4), 2x=160 g ai/ha"}, "[17]": {"conditions": "mean of A122T genotypes (H2,L3,L4), 3x=240 g ai/ha"}}, "note": "Marks after values point to notes of the source that are not given here."}
{"smiles": "CC(C)C1(C)N=C(c2ncccc2C(=O)O)NC1=O", "note": "(stereo not drawn) [imazapyr]", "values": [{"measurement": "biomass accumulation (dry)", "setting": "[1]", "result": "85.0 % of untreated"}, {"measurement": "plant height", "setting": "[1]", "result": "95.0 % of untreated"}, {"measurement": "Phytotoxicity Index (scale 0-9)", "setting": "H4 (A122T/A205V hybrid), 5x=400 g ai/ha", "result": 0.2}, {"measurement": "Phytotoxicity Index (scale 0-9)", "setting": "H4 (A122T/A205V hybrid), 6x=480 g ai/ha", "result": 0.0}, {"measurement": "Phytotoxicity Index (scale 0-9)", "setting": "[2]", "result": 0}, {"measurement": "plant height", "setting": "[2]", "result": "100.0 % of untreated"}, {"measurement": "Phytotoxicity Index (scale 0-9)", "setting": "L1 (A205V line), 1x=80 g ai/ha", "result": 0}, {"measurement": "plant height", "setting": "L1 (A205V line), 1x=80 g ai/ha", "result": "100.0 % of untreated"}, {"measurement": "Phytotoxicity Index (scale 0-9)", "setting": "L1 (A205V line), 2x=160 g ai/ha", "result": 1.6}, {"measurement": "Phytotoxicity Index (scale 0-9)", "setting": "[3]", "result": 5.1}, {"measurement": "plant height", "setting": "[3]", "result": "50.0 % of untreated"}, {"measurement": "Phytotoxicity Index (scale 0-9)", "setting": "L1 (A205V line), 4x=320 g ai/ha", "result": 8.4}, {"measurement": "Phytotoxicity Index (scale 0-9)", "setting": "L1 (A205V line), 5x=400 g ai/ha", "result": 8.9}, {"measurement": "Phytotoxicity Index (scale 0-9)", "setting": "L1 (A205V line), 6x=480 g ai/ha", "result": 8.9}, {"measurement": "Phytotoxicity Index (scale 0-9)", "setting": "L2 (A205V line), 0.5x=40 g ai/ha", "result": 0}, {"measurement": "Phytotoxicity Index (scale 0-9)", "setting": "L2 (A205V line), 1x=80 g ai/ha", "result": 0}, {"measurement": "biomass accumulation (dry)", "setting": "L2 (A205V line), 1x=80 g ai/ha", "result": "85.0 % of untreated"}, {"measurement": "Phytotoxicity Index (scale 0-9)", "setting": "L2 (A205V line), 2x=160 g ai/ha", "result": 3.1}, {"measurement": "Phytotoxicity Index (scale 0-9)", "setting": "L2 (A205V line), 3x=240 g ai/ha", "result": 3.9}, {"measurement": "Phytotoxicity Index (scale 0-9)", "setting": "L2 (A205V line), 4x=320 g ai/ha", "result": 5.9}, {"measurement": "Phytotoxicity Index (scale 0-9)", "setting": "[4]", "result": 6.9}, {"measurement": "plant height", "setting": "[4]", "result": "26.0 % of untreated"}, {"measurement": "Phytotoxicity Index (scale 0-9)", "setting": "L2 (A205V line), 6x=480 g ai/ha", "result": 6.7}, {"measurement": "Phytotoxicity Index (scale 0-9)", "setting": "L3 (cmsGM40, A122T line), 0.5x=40 g ai/ha", "result": 0.4}, {"measurement": "Phytotoxicity Index (scale 0-9)", "setting": "L3 (cmsGM40, A122T line), 1x=80 g ai/ha", "result": 0.4}, {"measurement": "Phytotoxicity Index (scale 0-9)", "setting": "[5]", "result": 0.4}, {"measurement": "plant height", "setting": "[5]", "result": "92.0 % of untreated"}, {"measurement": "Phytotoxicity Index (scale 0-9)", "setting": "L3 (cmsGM40, A122T line), 3x=240 g ai/ha", "result": 0.5}, {"measurement": "Phytotoxicity Index (scale 0-9)", "setting": "[6]", "result": 1.0}, {"measurement": "biomass accumulation (dry)", "setting": "[6]", "result": "75.0 % of untreated"}, {"measurement": "Phytotoxicity Index (scale 0-9)", "setting": "L3 (cmsGM40, A122T line), 5x=400 g ai/ha", "result": 2.0}, {"measurement": "Phytotoxicity Index (scale 0-9)", "setting": "L3 (cmsGM40, A122T line), 6x=480 g ai/ha", "result": 2.5}, {"measurement": "Phytotoxicity Index (scale 0-9)", "setting": "[7]", "result": 0.0}, {"measurement": "biomass accumulation (dry)", "setting": "[7]", "result": "100.0 % of untreated"}, {"measurement": "plant height", "setting": "[7]", "result": "100.0 % of untreated"}, {"measurement": "Phytotoxicity Index (scale 0-9)", "setting": "L4 (A122T line), 1x=80 g ai/ha", "result": 0.0}, {"measurement": "plant height", "setting": "L4 (A122T line), 1x=80 g ai/ha", "result": "100.0 % of untreated"}, {"measurement": "Phytotoxicity Index (scale 0-9)", "setting": "[8]", "result": 0.0}, {"measurement": "biomass accumulation (dry)", "setting": "[8]", "result": "97.0 % of untreated"}, {"measurement": "Phytotoxicity Index (scale 0-9)", "setting": "[9]", "result": 0.0}, {"measurement": "plant height", "setting": "[9]", "result": "97.0 % of untreated"}, {"measurement": "Phytotoxicity Index (scale 0-9)", "setting": "L4 (A122T line), 4x=320 g ai/ha", "result": 0.0}, {"measurement": "Phytotoxicity Index (scale 0-9)", "setting": "L4 (A122T line), 5x=400 g ai/ha", "result": 0.0}, {"measurement": "Phytotoxicity Index (scale 0-9)", "setting": "L4 (A122T line), 6x=480 g ai/ha", "result": 0.5}, {"measurement": "Phytotoxicity Index (scale 0-9)", "setting": "L5 (WT susceptible), 0.5x=40 g ai/ha", "result": 9}, {"measurement": "Phytotoxicity Index (scale 0-9)", "setting": "[10]", "result": 9}, {"measurement": "biomass accumulation (dry)", "setting": "[10]", "result": "15.0 % of untreated"}, {"measurement": "Phytotoxicity Index (scale 0-9)", "setting": "[11]", "result": 9}, {"measurement": "biomass accumulation (dry)", "setting": "[11]", "result": "15.0 % of untreated"}, {"measurement": "Phytotoxicity Index (scale 0-9)", "setting": "[12]", "result": 9}, {"measurement": "biomass accumulation (dry)", "setting": "[12]", "result": "15.0 % of untreated"}, {"measurement": "Phytotoxicity Index (scale 0-9)", "setting": "[13]", "result": 9}, {"measurement": "biomass accumulation (dry)", "setting": "[13]", "result": "15.0 % of untreated"}, {"measurement": "Phytotoxicity Index (scale 0-9)", "setting": "[14]", "result": 9}, {"measurement": "biomass accumulation (dry)", "setting": "[14]", "result": "15.0 % of untreated"}, {"measurement": "Phytotoxicity Index (scale 0-9)", "setting": "[15]", "result": 9}, {"measurement": "biomass accumulation (dry)", "setting": "[15]", "result": "15.0 % of untreated"}, {"measurement": "Height reduction", "setting": "heterozygotes A122T/A205V, 0.5x", "result": 0.6, "unit": "%"}, {"measurement": "Biomass weight reduction", "setting": "0.5x", "result": 0.3, "unit": "%"}, {"measurement": "Biomass weight reduction", "setting": "6x", "result": 33, "unit": "%"}, {"measurement": "Phytotoxicity Index (scale 0-9)", "setting": "mean of A122T genotypes (H2,L3,L4), 0.5x=40 g ai/ha", "result": 0.3}, {"measurement": "Phytotoxicity Index (scale 0-9)", "setting": "mean of A122T genotypes (H2,L3,L4), 1x=80 g ai/ha", "result": 0.3}, {"measurement": "Phytotoxicity Index (scale 0-9)", "setting": "[16]", "result": 0.3}, {"measurement": "plant height", "setting": "[16]", "result": "98.0 % of untreated"}, {"measurement": "Phytotoxicity Index (scale 0-9)", "setting": "[17]", "result": 0.3}, {"measurement": "biomass accumulation (dry)", "setting": "[17]", "result": "90.0** % of untreated"}, {"measurement": "Phytotoxicity Index (scale 0-9)", "setting": "mean of A122T genotypes (H2,L3,L4), 4x=320 g ai/ha", "result": 0.5}, {"measurement": "Phytotoxicity Index (scale 0-9)", "setting": "mean of A122T genotypes (H2,L3,L4), 5x=400 g ai/ha", "result": 0.8}, {"measurement": "Phytotoxicity Index (scale 0-9)", "setting": "mean of A122T genotypes (H2,L3,L4), 6x=480 g ai/ha", "result": 1.2}, {"measurement": "Phytotoxicity Index (scale 0-9)", "setting": "mean of A122T/A205V genotypes (H3,H4), 0.5x=40 g ai/ha", "result": 0.5}, {"measurement": "Phytotoxicity Index (scale 0-9)", "setting": "mean of A122T/A205V genotypes (H3,H4), 1x=80 g ai/ha", "result": 0.5}, {"measurement": "Phytotoxicity Index (scale 0-9)", "setting": "mean of A122T/A205V genotypes (H3,H4), 2x=160 g ai/ha", "result": 0.5}, {"measurement": "Phytotoxicity Index (scale 0-9)", "setting": "mean of A122T/A205V genotypes (H3,H4), 3x=240 g ai/ha", "result": 0.5}, {"measurement": "Phytotoxicity Index (scale 0-9)", "setting": "mean of A122T/A205V genotypes (H3,H4), 4x=320 g ai/ha", "result": 0.5}, {"measurement": "Phytotoxicity Index (scale 0-9)", "setting": "mean of A122T/A205V genotypes (H3,H4), 5x=400 g ai/ha", "result": 0.6}, {"measurement": "Phytotoxicity Index (scale 0-9)", "setting": "mean of A122T/A205V genotypes (H3,H4), 6x=480 g ai/ha", "result": 1}, {"measurement": "Phytotoxicity Index (scale 0-9)", "setting": "mean of A205V genotypes (H1,L1,L2), 2x=160 g ai/ha", "result": "2.2*"}, {"measurement": "Phytotoxicity Index (scale 0-9)", "setting": "mean of A205V genotypes (H1,L1,L2), 3x=240 g ai/ha", "result": "5.1**"}, {"measurement": "Phytotoxicity Index (scale 0-9)", "setting": "mean of A205V genotypes (H1,L1,L2), 4x=320 g ai/ha", "result": "7.4**"}, {"measurement": "Phytotoxicity Index (scale 0-9)", "setting": "mean of A205V genotypes (H1,L1,L2), 5x=400 g ai/ha", "result": "8.2**"}, {"measurement": "Phytotoxicity Index (scale 0-9)", "setting": "mean of A205V genotypes (H1,L1,L2), 6x=480 g ai/ha", "result": "8.2**"}]}
